Laboratory results reported in patent US9889111B2, “Pharmaceutical composition comprising omega-(arylsulfonyl)alkylnitrile” (OLATEC THERAPEUTICS LLC, priority 2012, dated 2018).

Key:
[1] = test system: arachidonic acid-induced ear swelling; assay: Topical arachidonic acid-induced ear swelling model in mice (topical application); type: in vivo, mice (male ICR); details: 20 μL applied 30 min before and 15 min after arachidonic acid, measured at 90 minutes
Method: The test compounds, indomethacin (positive control), and vehicle were evaluated for anti-inflammatory activity in a topical arachidonic acid-induced ear swelling model in mice. Male ICR mice weighing 22±2 g were used and randomly divided. Arachidonic Acid (0.5 mg in 20 μl of acetone:ethanol/1:1) was applied topically to the anterior and posterior surfaces of the right ear of each mice. Test compounds and vehicle, as listed in Table 1 were similarly applied 30 minutes before and 15 minutes after arachidonic acid application. The thickness of the right ear and the left ear was measured and the difference calculated as an indication of the inflammation in the right ear. Ear swelling was measured by a Dyer model micrometer gauge at 60 and 90 minutes after arachidonic acid application as an index of inflammation. Percent inhibition was calculated according to the formula: Ic−It/Ic×100, where Ic and It refers to increase of ear thickness (mm) in control and treated mice, respectively. ANOVA and Dunnett's test were employed to ascertain significant difference between vehicle control and treated groups. Significance is set at P<0.05 level. The test compounds, indomethacin (positive control), and vehicle were evaluated for anti-inflammatory activity in a topical arachidonic acid-induced ear swelling model in mice. Male ICR mice weighing 22±2 g were used and randomly divided; the test compound and vehicle control had 10 mice, and indomethacin had 5 mice. Arachidonic Acid (0.5 mg in 20 μl of acetone:ethanol/1:1) was applied topically to the anterior and posterior surfaces of the right ear of each mouse. Test substances and vehicle, as listed in Table 4 were similarly applied 30 min before and 15 min after arachidonic acid application. The thickness of the right ear and the left ear was measured and the difference calculated as an indication of the inflammation in the right ear. Ear swelling was measured by a Dyer model micrometer gauge at 60 and 90 minutes after arachidonic acid application as an index of inflammation. Percent inhibition was calculated according to the formula: Ic−It/Ic×100, where Ic and It refers to increase of ear thickness (mm) in control and treated mice, respectively. ANOVA and Dunnett's test were employed to ascertain significant difference between vehicle control and treated groups. Significance is set at P<0.05 level.

[2] = test system: arachidonic acid induced ear swelling; assay: Arachidonic acid induced ear swelling model in mice (oral administration); type: in vivo, mice (male ICR derived); details: for % Inhibition (ear swelling): Table 8, oral gavage, test compound 30 mg/kg 1 hour before, dexamethasone 0.3 mg/kg 3 hour before arachidonic acid, measured at 90 minutes
Method: 3-[(4-Methylphenyl)sulfonyl]propionitrile was suspended in vehicle (1% Tween 80 in water) to 3 mg/mL. The test compound, dexamethasone (positive control in vehicle), and vehicle were orally administered to mice and evaluated for anti-inflammatory activity in the topical arachidonic acid induced ear swelling model in mice.
Male ICR derived mice weighing 22±2 g were used in this experiment. 10 mice were used for each group (active compound, positive control, and vehicle). All animals were maintained in a controlled temperature (22-24° C.) and humidity (60%-70%) environment with 12-hour light/dark cycles for at least one week prior to use.
Arachidonic acid (0.5 mg in 20 μL acetone) was applied topically onto the anterior and posterior surfaces of the right ear of test animals to induce inflammation. Active compound in vehicle (10 mL/kg) and vehicle (10 mL/kg, […]) was orally administered by gavage 1 hour before arachidonic acid, whereas dexamethasone was orally administered by gavage 3 hour before arachidonic acid challenge. At 60 minutes and 90 minutes after arachidonic acid induction of ear edema, the thickness of the right ear and the left ear was measured and the difference calculated as an indication of the inflammation in the right ear.

[3] = Table 6, test compounds 375 mM, indomethacin 14 mM (0.5% w/v)
[4] = Table 7, test compounds 375 mM, indomethacin 14 mM

Compound	% Inhibition (ear swelling) [1, 3] [%]	% Inhibition (ear swelling) [1, 4] [%]	other results
N#CCCS(=O)(=O)c1ccc2ccccc2c1 [3-(naphthalene-2-sulfonyl)propionitrile]	25	–	–
COc1ccc(S(=O)(=O)CCC#N)cc1 [3-(4-methoxyphenyl)sulfonylpropionitrile]	–	23	–
N#CCCS(=O)(=O)c1ccccc1 [3-(phenylsulfonyl)propionitrile]	36	–	–
N#CCCS(=O)(=O)c1ccc(Cl)c(Cl)c1 [3-(3,4-dichlorophenyl)sulfonylpropionitrile]	–	28	melting point: 137.7 to 140.2 °C
N#CCCS(=O)(=O)c1ccc(Cl)cc1 [3-[(4-chlorophenyl)sulfonyl]propionitrile]	20	–	–
COc1ccc2c(c1)c(CC(=O)O)c(C)n2C(=O)c1ccc(Cl)cc1 [Indomethacin, reference compound]	57	58	–
C[C@@H]1C[C@H]2[C@@H]3CCC4=CC(=O)C=C[C@]4(C)[C@@]3(F)[C@@H](O)C[C@]2(C)[C@@]1(O)C(=O)CO [Dexamethasone, reference compound]	–	–	% Inhibition (ear swelling) [2]: 36%
Cc1ccc(S(=O)(=O)CCC#N)cc1 [3-[(4-methylphenyl)sulfonyl]propionitrile]	44	–	% Inhibition (ear swelling) [2]: 16%; Inhibition in arachidonic acid induced ear swelling (in words) ([2]; oral administration, at 90 minutes): significant inhibition
